Laboratory results taken from PubChem BioAssay AID2658 (Sanford-Burnham Center for Chemical Genomics, 2010).
Several values for one entry are separate records, joined by “and”; a condition that tells them apart may be missing. Identical values can stand only once. Activity calls are given as the source filed them. No rule for the calls is given here.

Target: Ubiquitin-conjugating enzyme E2 N (Homo sapiens) (UniProt P61088)
Experiment: Ubc13/Uev1a ubiquitination inhibitors, SAR follow-up, selectivity assay, biochemical, TR-FRET (AID 2658)
Conditions: Ubc13/Uev1a polyubiquitination, in vitro

Chain of Ubiquitin-conjugating enzyme E2 N (Homo sapiens) (P61088 whole entry, looked up): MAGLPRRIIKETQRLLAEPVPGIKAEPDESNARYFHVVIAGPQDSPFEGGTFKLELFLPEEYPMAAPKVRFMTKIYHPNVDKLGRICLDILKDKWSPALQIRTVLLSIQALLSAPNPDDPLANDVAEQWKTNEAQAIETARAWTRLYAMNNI

Structure (SMILES)	IC50
COc1ccccc1CNC(=O)COC(=O)c1cc(-c2cccs2)nc2ccccc12	82.5 µM
Nc1ccc2c(c1)C1C=CCC1C(c1ccccc1)N2 (stereo unspecified)	> 100 µM (inactive)
CN(C(=O)COC(=O)c1cc(-c2ccco2)nc2ccccc12)C1CCS(=O)(=O)C1 (stereo unspecified)	47.2 µM
Cc1ccsc1C=Nc1ccc(O)cc1	> 100 µM (inactive)
COc1ccc(CCNC(=O)c2cc(-c3ccco3)nc3ccccc23)cc1	65 µM
O=C(N/N=C/c1ccc(F)cc1)c1cc(-c2ccco2)nc2ccccc12	26.1 µM and 31.2 µM
COc1ccccc1COC(=O)COC(=O)c1cc(-c2ccco2)nc2ccccc12	68.2 µM
O=C(Nc1ccccc1N1CCOCC1)c1cc(-c2ccco2)nc2ccccc12	> 100 µM (inactive)
S=c1[nH]nc(-c2cc(-c3ccccc3)n[nH]2)n1N=Cc1ccc(Cl)c(Cl)c1	> 100 µM (inactive)
Cc1ccc(C2Nc3ccc(C(=O)O)cc3C3C=CCC32)cc1 (stereo unspecified)	> 100 µM (inactive)
Cc1ccc(O)c(N=Cc2ccc(C)s2)c1	> 100 µM (inactive)
Cc1ccc(N=Cc2sccc2C)cc1C	> 100 µM (inactive)
CCOc1cc(C2c3c(oc4ccccc4c3=O)C(=O)N2c2nccs2)ccc1O (stereo unspecified)	> 100 µM (inactive)
CCCCn1c(NC(=O)c2ccccc2Cl)c(C#N)c2nc3ccccc3nc21	> 100 µM (inactive)
O=C(NN=Cc1ccc(F)cc1)c1cc(-c2ccco2)nc2ccccc12	> 100 µM (inactive)
CCN(CC)S(=O)(=O)c1ccc(O)c(NC(=O)c2cc(-c3cc(OC)c(OC)c(OC)c3)nc3ccccc23)c1	> 100 µM (inactive)
CC(=NOCc1nc2ccccc2c(=O)n1N=Cc1cc(C)cc([N+](=O)[O-])c1O)c1ccccc1	> 100 µM (inactive)
O=C(OCC(=O)N1CCN(C(=O)c2ccco2)CC1)c1cc(-c2ccco2)nc2ccccc12	93.1 µM
Cc1ccccc1NC(=O)Cn1c(O)c(N=NC(=O)c2ccccc2O)c2ccccc21	98 µM
O=C(O)c1ccc(C2Nc3ccc(F)cc3C3C=CCC32)cc1 (stereo unspecified)	> 100 µM (inactive)
CCN(CC)CCNC(=O)c1cc(-c2ccco2)nc2ccccc12	> 100 µM (inactive)
Cc1[nH][nH]c(=O)c1C(c1ccc(-c2ccc(C(=O)O)cc2)o1)c1c(C)[nH][nH]c1=O	> 100 µM (inactive)
O=C(COC(=O)c1cc(-c2ccco2)nc2ccccc12)NC(=O)c1ccccc1	92.6 µM
O=C(N=Nc1c(O)[nH]c2ccc([N+](=O)[O-])cc12)c1ccccc1Cl	> 100 µM (inactive)
Cc1ccsc1C=Nc1ccc(C(N)=O)cc1	> 100 µM (inactive)
Clc1ccc2c(c1)C1C=CCC1C(c1ccccc1)N2 (stereo unspecified)	> 100 µM (inactive)
NS(=O)(=O)c1ccc2c(c1)C1C=CCC1C(c1ccc([N+](=O)[O-])cc1)N2 (stereo unspecified)	> 100 µM (inactive)
S=c1[nH]nc(-c2cc(-c3ccccc3)n[nH]2)n1N=Cc1c(Cl)cccc1Cl	> 100 µM (inactive)

Second part, the compound after the results:

IC50	Structure (SMILES)
83 µM	COc1ccc(CNC(=O)C(C)OC(=O)c2cc(-c3ccco3)nc3ccccc23)cc1 (stereo unspecified)
> 100 µM (inactive)	CCNC(=O)COC(=O)c1cc(-c2ccco2)nc2ccccc12
> 100 µM (inactive)	COC(=O)c1ccc(CNC(=O)COC(=O)c2cc(-c3ccco3)nc3ccccc23)cc1
73.4 µM and 74.4 µM	O=C(COC(=O)c1cc(-c2ccco2)nc2ccccc12)NCc1ccc(Cl)cc1
58.9 µM	Cc1ccc(CNC(=O)COC(=O)c2cc(-c3ccco3)nc3ccccc23)cc1
92.6 µM	COc1ccc(CCNC(=O)COC(=O)c2cc(-c3ccco3)nc3ccccc23)cc1OC
60.2 µM	COc1ccccc1CNC(=O)COC(=O)c1cc(-c2ccco2)nc2ccccc12
> 100 µM (inactive)	CN(Cc1ccc(F)cc1)C(=O)COC(=O)c1cc(-c2ccco2)nc2ccccc12
> 100 µM (inactive)	COc1ccc(CNC(=O)COC(=O)c2cc(-c3ccco3)nc3ccccc23)c(OC)c1
> 100 µM (inactive)	COc1ccccc1C(=O)NC(=O)COC(=O)c1cc(-c2ccco2)nc2ccccc12
86.6 µM	COc1ccc(CNC(=O)COC(=O)c2cc(-c3ccc(C)o3)nc3ccccc23)cc1
> 100 µM (inactive)	O=C(COC(=O)c1cc(-c2ccco2)nc2ccccc12)NCc1ccccc1Cl
72.7 µM	O=C(COC(=O)c1cc(-c2ccco2)nc2ccccc12)NCc1ccc(F)cc1
